Laboratory results as given in patent publication US20260248752A1, “Oral Care Product And Methods Of Use And Manufacture Thereof” (Colgate-Palmolive Company, priority 2019, published 2026).

Experiments:
Format in all cases: cell-based, Streptococcus mutans
S. mutans = assay: Growth inhibition of S. mutans in culture by neat solutions of xylitol and/or arginine; settings: 24 hours after administration of neat solutions, absence of added sucrose
Experimental: The ability of xylitol to inhibit the growth of S. mutans is tested in combination with arginine in culture. Percent growth inhibition is measured at 24 hours after administration of the neat solutions listed in the below table.
Results in Table 2 are obtained in the absence of added sucrose.

S. mutans biofilm [1] = assay: pH drop of S. mutans biofilm from glycolysis (total AUC of delta pH); settings: for Total AUC of Δ pH: after 24 hours of exposure and addition of growth media, lower AUC = less pH reduction; for Δ (vs control) of total AUC of Δ pH: difference from control (no arginine or xylitol) AUC 29.5
Text: Such drops in pH can be harmful to the health of the oral cavity.

S. mutans biofilm [2] = assay: S. mutans biofilm formation by crystal violet staining (OD 590 nm); settings: for S. mutans biofilm formation, crystal violet staining (OD 590 nm), mean: 24 hours of exposure
Experimental: Determining Biofilm Formation with varying amounts of Xylitol: In a separate experiment, simple solutions with only xylitol at varying concentrations, tested in combination with a control, are also tested to determine the minimum amount of xylitol needed to prevent S. mutans biofilm accretion in culture. It is determined that at least 5% xylitol is necessary to inhibit biofilm accretion in culture after 24 hours of exposure.

planktonic S. mutans = assay: Minimum inhibitory concentration of xylitol, planktonic S. mutans growth (OD 610 nm); settings: for growth of S. mutans, optical density (OD 610 nm), mean: 24 hours of exposure
Experimental: Determining Minimum Inhibitory Concentration (MIC) of Xylitol: In a separate experiment, simple solutions with only xylitol at varying concentrations, tested in combination with a control, are also tested to determine the minimum inhibitor concentration of xylitol needed to inhibit planktonic S. mutans growth in culture.

[3] = in culture after 24 hours of exposure

With `N=C(N)NCCC[C@H](N)C(=O)O` [1.5% arginine, arginine] the “% growth inhibition relative to control” value (S. mutans) was 4.1%, the “Total AUC of Δ pH” value (S. mutans biofilm [1]) was 28.9 and the “Δ (vs control) of total AUC of Δ pH” value (S. mutans biofilm [1]) was 0.6.
With `OC[C@@H](O)[C@H](O)[C@@H](O)CO` [Xylitol] the “% growth inhibition relative to control” value (S. mutans; listed as 1% xylitol) was 17.9%, the “% growth inhibition relative to control” value (S. mutans; listed as 5% xylitol) was 40.3% and the “% growth inhibition relative to control” value (S. mutans; listed as 10% xylitol) was 45.6%. The “minimum amount of xylitol needed to prevent S. mutans biofilm accretion” value (S. mutans biofilm [2]; [3]) was “at least 5%”, the “S. mutans biofilm formation, crystal violet staining (OD 590 nm), mean” value (shortened to “S. mutans biofilm formation”) (S. mutans biofilm [2]; xylitol 0.15625%) was 0.327 and the “S. mutans biofilm formation” value (S. mutans biofilm [2]; xylitol 0.3125%) was 0.338. The “S. mutans biofilm formation” value (S. mutans biofilm [2]; xylitol 0.625%) was 0.301, the “S. mutans biofilm formation” value (S. mutans biofilm [2]; xylitol 1.25%) was 0.254 and the “S. mutans biofilm formation” value (S. mutans biofilm [2]; xylitol 2.5%) was 0.221. For the same molecule, the “S. mutans biofilm formation” value (S. mutans biofilm [2]; xylitol 5%) was 0.136, the “S. mutans biofilm formation” value (S. mutans biofilm [2]; xylitol 10%) was 0.122 and the “S. mutans biofilm formation” value (S. mutans biofilm [2]; xylitol 20%) was 0.123. For the same molecule, the “S. mutans biofilm formation” value (S. mutans biofilm [2]; xylitol 40%) was 0.109, the “minimum inhibitory concentration of xylitol needed to inhibit planktonic S. mutans growth” value (planktonic S. mutans; [3]) was “at least 10%” and the “growth of S. mutans, optical density (OD 610 nm), mean” value (shortened to “growth of S. mutans, optical density”) (planktonic S. mutans; xylitol 0.15625%) was 0.256. The “growth of S. mutans, optical density” value (planktonic S. mutans; xylitol 0.3125%) was 0.268, the “growth of S. mutans, optical density” value (planktonic S. mutans; xylitol 0.625%) was 0.241 and the “growth of S. mutans, optical density” value (planktonic S. mutans; xylitol 1.25%) was 0.188. For the same molecule, the “growth of S. mutans, optical density” value (planktonic S. mutans; xylitol 2.5%) was 0.165, the “growth of S. mutans, optical density” value (planktonic S. mutans; xylitol 5%) was 0.114 and the “growth of S. mutans, optical density” value (planktonic S. mutans; xylitol 10%) was 0.097. For the same molecule, the “growth of S. mutans, optical density” value (planktonic S. mutans; xylitol 20%) was 0.089, the “growth of S. mutans, optical density” value (planktonic S. mutans; xylitol 40%) was 0.071 and the “Total AUC of Δ pH” value (S. mutans biofilm [1]; listed as 1% xylitol) was 27.8. The “Total AUC of Δ pH” value (S. mutans biofilm [1]; listed as 5% xylitol) was 25.3, the “Total AUC of Δ pH” value (S. mutans biofilm [1]; listed as 10% xylitol) was 24.0 and the “Δ (vs control) of total AUC of Δ pH” value (S. mutans biofilm [1]; listed as 1% xylitol) was 1.7. The “Δ (vs control) of total AUC of Δ pH” value (S. mutans biofilm [1]; listed as 5% xylitol) was 4.2 and the “Δ (vs control) of total AUC of Δ pH” value (S. mutans biofilm [1]; listed as 10% xylitol) was 5.5.
